Data taken from patent US20140030808A1, “Method for Cellular RNA Expression” (BIONTECH AG, priority 2010, published 2014).
Like-named read-outs stand apart in the source and are kept apart here.

System: Primary human foreskin fibroblasts (BJ, CCD1079Sk, HFF)
Format: cell-based
Settings: 2 μM; for luciferase expression after transient treatment: BJ and CCD1079SK

Nc1ncc2[nH]cnc2n1 [2-aminopurine]
luciferase expression after transient treatment (7 h incubation period): did not results in a significant increase of luciferase expression | luciferase expression after transient treatment (24 h treatment): rapidly reversed after removal of the inhibitors | luciferase expression after transient treatment (48 h treatment): less efficient than a permanent treatment | duration of high luciferase expression levels (permanent inhibition): 5 days
